Measurements taken from patent US7432260B2, “Pyrimidine compounds” (Cyclacel Limted, priority 2002, dated 2008).

Experiments:
CDK4/cyclin D1 = CDK4/cyclin D1 (Homo sapiens, UniProt P11802); assay: Kinase assay CDK4/cyclin D1; type: biochemical; conditions: Table 2; read-out: Kinase Inhibition IC50 CDK4 cyclin D1
Description: (§1) Kinase assays. […] This was achieved by measurement of incorporation of radioactive phosphate from ATP into appropriate polypeptide substrates. Recombinant protein kinases and kinase complexes were produced or obtained commercially. Assays were performed using 96-well plates and appropriate assay buffers (typically 25 mM β-glycerophosphate, 20 mM MOPS, 5 mM EGTA, 1 mM DTT, 1 mM […], pH 7.4), into which were added 2-4 μg of active enzyme with appropriate substrates. The reactions were initiated by addition of Mg/ATP mix (15 mM MgCl2+100 μM ATP with 30-50 kBq per well of [γ-^32P]-ATP) and mixtures incubated as required at 30° C. Reactions were stopped on ice, followed by filtration through p81 filterplates or GF/C filterplates (Whatman Polyfiltronics, Kent, UK). After washing 3 times with 75 mM aq orthophosphoric acid, plates were dried, scintillant added and incorporated radioactivity measured in a scintillation counter (TopCount, Packard Instruments, Pangbourne, Berks, UK). Compounds for kinase assay were made-up as 10 mM stocks in DMSO and diluted into 10% DMSO inrassay buffer.

GSK-3β = GSK-3β (Homo sapiens, UniProt P49841); assay: Kinase assay GSK-3β; type: biochemical; conditions: Table 2; read-out: Kinase Inhibition IC50 GSK-3β
Chain of GSK-3β (P49841 whole entry): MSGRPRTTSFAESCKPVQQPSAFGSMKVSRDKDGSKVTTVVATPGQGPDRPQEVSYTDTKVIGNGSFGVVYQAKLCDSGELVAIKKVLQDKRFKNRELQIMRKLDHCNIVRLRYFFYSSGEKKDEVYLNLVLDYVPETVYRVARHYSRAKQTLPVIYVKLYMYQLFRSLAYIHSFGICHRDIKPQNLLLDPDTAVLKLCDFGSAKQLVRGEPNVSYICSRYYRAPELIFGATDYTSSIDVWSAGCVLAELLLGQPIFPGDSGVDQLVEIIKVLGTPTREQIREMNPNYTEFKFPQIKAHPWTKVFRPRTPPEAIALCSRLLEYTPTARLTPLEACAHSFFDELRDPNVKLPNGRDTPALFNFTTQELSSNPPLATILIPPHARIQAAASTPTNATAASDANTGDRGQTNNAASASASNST
Description: as §1

CDK7/cyclin H = CDK7/cyclin H (Homo sapiens, UniProt P50613); assay: CDK7 assay; type: biochemical; conditions: Table 2; read-out: Kinase Inhibition IC50 CDK7 cyclin H
Chain of CDK7/cyclin H (P50613 whole entry): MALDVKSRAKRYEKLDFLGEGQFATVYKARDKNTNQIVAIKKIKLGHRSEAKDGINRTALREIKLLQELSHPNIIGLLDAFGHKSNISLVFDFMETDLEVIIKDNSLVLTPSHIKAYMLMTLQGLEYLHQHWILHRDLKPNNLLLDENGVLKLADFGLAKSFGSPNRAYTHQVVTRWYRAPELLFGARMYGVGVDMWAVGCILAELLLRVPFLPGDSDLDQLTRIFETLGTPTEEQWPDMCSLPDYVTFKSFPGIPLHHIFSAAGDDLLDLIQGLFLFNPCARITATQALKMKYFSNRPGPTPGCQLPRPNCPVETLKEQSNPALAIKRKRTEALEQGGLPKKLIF
Description: as §1
(§2) CDK 7 and 9 assays. CTD peptide substrate (biotinyl-Ahx-(Tyr-Ser-Pro-Thr-Ser-Pro-Ser)4-NH2; 1-2 mg/mL) and recombinant human CDK7/cyclin H, CDK9/cyclin T1, or CDK9/cyclin K (0.5-2 μg) were incubated for 45 min at 30° C. in the presence of varying amounts of test compound in 20 mM MOPS pH 7.2, 25 mM β-glycerophosphate, 5 mM EGTA, 1 mM DTT, 1 mM sodium vanadate, 15 mM MgCl2, and 100 μM ATP (containing a trace amount of ^32PγATP) in a total volume of 25 μL in a 96-well microtiter plate. The reaction was stopped by placing the plate on ice for 2 min. Avidin (50 μg) was added to each well, and the plate was incubated at room temp for 30 min. The samples were transferred to a 96-well P81 filter plate, and washed (4×200 μL per well) with 75 mM phosphoric acid. Microscint 40 scintillation liquid (50 μL) was added to each well, and the amount of ^32P incorporation for each sample was measured using a Packard Topcount microplate scintillation counter.

CDK1/cyclin B = CDK1/cyclin B (Homo sapiens, UniProt P06493); assay: Kinase assay CDK1/cyclin B; type: biochemical; conditions: Table 2; read-out: Kinase Inhibition IC50 CDK1 cyclin B
Chain of CDK1/cyclin B (P06493 whole entry): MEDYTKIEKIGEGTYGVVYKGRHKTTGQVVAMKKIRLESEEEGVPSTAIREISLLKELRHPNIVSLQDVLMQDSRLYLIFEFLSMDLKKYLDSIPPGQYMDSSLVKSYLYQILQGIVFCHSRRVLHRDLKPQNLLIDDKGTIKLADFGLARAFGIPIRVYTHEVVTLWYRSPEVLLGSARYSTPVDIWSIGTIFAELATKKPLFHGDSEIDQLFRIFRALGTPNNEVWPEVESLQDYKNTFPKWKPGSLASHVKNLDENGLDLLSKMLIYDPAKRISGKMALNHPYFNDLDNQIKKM
Chain of CDK1/cyclin B (P14635 whole entry partner): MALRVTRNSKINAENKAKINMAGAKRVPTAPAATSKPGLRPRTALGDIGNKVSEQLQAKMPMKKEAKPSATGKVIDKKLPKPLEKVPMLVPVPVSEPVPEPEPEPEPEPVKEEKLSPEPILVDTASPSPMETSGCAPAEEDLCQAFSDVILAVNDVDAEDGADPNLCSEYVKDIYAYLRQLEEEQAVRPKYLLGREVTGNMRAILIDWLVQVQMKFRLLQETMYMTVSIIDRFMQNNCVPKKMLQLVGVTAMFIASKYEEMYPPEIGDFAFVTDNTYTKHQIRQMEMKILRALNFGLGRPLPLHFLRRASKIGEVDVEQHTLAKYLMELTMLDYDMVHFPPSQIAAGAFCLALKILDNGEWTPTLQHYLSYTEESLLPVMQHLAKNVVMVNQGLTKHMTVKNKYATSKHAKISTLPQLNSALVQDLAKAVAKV
Description: as §1

CDK2/cyclin E = CDK2/cyclin E (Homo sapiens, UniProt P24941); assay: Kinase assay CDK2/cyclin E; type: biochemical; conditions: Table 2; read-out: Kinase Inhibition IC50 CDK2 cyclin E
Description: as §1

CDK2/cyclin A = CDK2/cyclin A (Homo sapiens, UniProt P24941); assay: Kinase assay CDK2/cyclin A; type: biochemical; conditions: Table 2; read-out: Kinase Inhibition IC50 CDK2 cyclin A
Description: as §1

A549 = assay: 72-h MTT cytotoxicity assay A549; type: cell-based; conditions: Homo sapiens, A549, 72 h, Table 4
Description: (§3) MTT cytotoxicity assay. […] Standard 72-h MTT (thiazolyl blue; 3-[4,5-dimethylthiazol-2-yl]-2,5-diphenyltetrazolium bromide) assays were performed (Haselsberger, K.; Peterson, D. C.; Thomas, D. G.; Darling, J. L. Anti Cancer Drugs 1996, 7, 331-8; Loveland, B. E.; Johns, T. G.; Mackay, I. R.; Vaillant, F.; Wang, Z. X.; Hertzog, P. J. Biochemistry International 1992, 27, 501-10). In short: cells were seeded into 96-well plates according to doubling time and incubated overnight at 37° C. Test compounds were made up in DMSO and a 1/3 dilution series prepared in 100 μL cell media, added to cells (in triplicates) and incubated for 72 ho at 37° C. MTT was made up as a stock of 5 mg/mL in cell media and filter-sterilised. Media was removed from cells followed by a wash with 200 μL PBS.
(§4) MTT solution was then added at 20 μL per well and incubated in the dark at 37° C. for 4 h. MTT solution was removed and cells again washed with 200 μL PBS. MTT dye was solubilised with 200 μL per well of DMSO with agitation.

HT29 = assay: 72-h MTT cytotoxicity assay HT29; type: cell-based; conditions: Homo sapiens, HT-29, 72 h, Table 4
Description: as §3, §4

CDK9/cyclin T1 = CDK9/cyclin T1 (Homo sapiens, UniProt P50750); assay: CDK9 assay; type: biochemical; conditions: Table 2; read-out: Kinase Inhibition IC50 CDK9 cyclin T1
Chain of CDK9/cyclin T1 (P50750 whole entry): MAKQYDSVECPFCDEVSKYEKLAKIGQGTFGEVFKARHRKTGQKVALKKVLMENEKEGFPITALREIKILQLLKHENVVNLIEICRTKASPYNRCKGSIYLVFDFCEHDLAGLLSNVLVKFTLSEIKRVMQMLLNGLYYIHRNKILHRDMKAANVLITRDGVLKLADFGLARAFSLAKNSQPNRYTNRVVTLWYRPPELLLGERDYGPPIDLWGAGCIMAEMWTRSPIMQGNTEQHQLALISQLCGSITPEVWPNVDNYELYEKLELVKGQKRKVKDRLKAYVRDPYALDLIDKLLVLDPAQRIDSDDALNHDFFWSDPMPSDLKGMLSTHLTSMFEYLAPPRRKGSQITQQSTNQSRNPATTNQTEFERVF
Chain of CDK9/cyclin T1 (O60563 whole entry partner): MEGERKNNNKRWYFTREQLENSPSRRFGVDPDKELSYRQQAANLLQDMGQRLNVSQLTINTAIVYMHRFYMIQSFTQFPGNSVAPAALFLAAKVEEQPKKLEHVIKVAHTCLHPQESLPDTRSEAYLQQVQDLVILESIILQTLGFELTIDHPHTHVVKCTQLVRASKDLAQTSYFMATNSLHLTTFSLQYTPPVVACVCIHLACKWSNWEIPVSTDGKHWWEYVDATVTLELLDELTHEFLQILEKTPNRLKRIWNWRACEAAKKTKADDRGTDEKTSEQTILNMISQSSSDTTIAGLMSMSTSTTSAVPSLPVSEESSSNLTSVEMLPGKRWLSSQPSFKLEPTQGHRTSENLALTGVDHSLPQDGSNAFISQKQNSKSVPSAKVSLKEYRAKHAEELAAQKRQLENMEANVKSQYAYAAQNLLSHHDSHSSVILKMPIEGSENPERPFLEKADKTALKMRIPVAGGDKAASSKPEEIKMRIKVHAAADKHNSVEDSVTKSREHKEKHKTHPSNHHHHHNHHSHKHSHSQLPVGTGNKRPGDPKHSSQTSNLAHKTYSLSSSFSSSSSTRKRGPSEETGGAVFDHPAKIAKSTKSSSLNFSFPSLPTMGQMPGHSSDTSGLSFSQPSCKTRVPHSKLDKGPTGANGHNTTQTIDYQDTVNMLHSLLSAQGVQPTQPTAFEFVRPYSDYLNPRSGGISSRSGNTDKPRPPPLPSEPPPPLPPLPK
Description: as §1, §2

Saos-2 = assay: 72-h MTT cytotoxicity assay Saos-2; type: cell-based; conditions: Homo sapiens, SAOS-2, 72 h, Table 4
Description: as §3, §4

Chain of CDK4/cyclin D1 (P11802 whole entry): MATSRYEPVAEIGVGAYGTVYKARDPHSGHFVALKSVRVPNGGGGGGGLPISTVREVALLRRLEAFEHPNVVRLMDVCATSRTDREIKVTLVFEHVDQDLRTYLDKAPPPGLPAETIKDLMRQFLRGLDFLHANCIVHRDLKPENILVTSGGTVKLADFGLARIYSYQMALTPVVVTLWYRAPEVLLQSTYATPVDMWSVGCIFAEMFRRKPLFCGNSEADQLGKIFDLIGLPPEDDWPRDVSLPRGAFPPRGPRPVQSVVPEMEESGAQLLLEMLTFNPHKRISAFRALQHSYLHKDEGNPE
Chain of CDK4/cyclin D1 (P24385 whole entry partner): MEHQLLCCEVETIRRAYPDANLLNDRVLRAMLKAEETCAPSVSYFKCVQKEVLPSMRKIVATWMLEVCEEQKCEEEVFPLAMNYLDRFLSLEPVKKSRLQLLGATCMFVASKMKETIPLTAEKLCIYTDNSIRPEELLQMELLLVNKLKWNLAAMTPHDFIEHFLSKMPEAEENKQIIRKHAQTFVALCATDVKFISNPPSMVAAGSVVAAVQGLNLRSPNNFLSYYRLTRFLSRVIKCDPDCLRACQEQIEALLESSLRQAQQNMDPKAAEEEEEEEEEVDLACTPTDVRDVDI

Row | Structure (SMILES) | IC50 (CDK4/cyclin D1) [µM] | IC50 (GSK-3β) [µM] | IC50 (CDK7/cyclin H) [µM] | IC50 (CDK1/cyclin B) [µM] | IC50 (CDK2/cyclin E) [µM] | IC50 (CDK2/cyclin A) [µM] | IC50 (A549) [µM] | IC50 (HT29) [µM] | IC50 (CDK9/cyclin T1) [µM] | IC50 (Saos-2) [µM]
1 | CCNc1nc(C)c(-c2ccnc(Nc3cccc(CO)c3)n2)s1 [Compound 68, {3-[4-(2-Ethylamino-4-methyl-thiazol-5-yl)-pyrimidin-2-ylamino]-phenyl}-methanol] | 0.042 | 0.82 | 0.48 | 0.15 | 0.065 | 0.061 | – | – | – | –
2 | Cc1c(-c2ccnc(Nc3ccc(N4CCOCC4)cc3)n2)sc(=O)n1C [Compound 92, 3,4-Dimethyl-5-[2-(4-morpholin-4-yl-phenylamino)-pyrimidin-4-yl]-3H-thiazol-2-one] | 1.3 | 0.47 | 2.8 | 15 | 0.64 | 1.2 | – | – | – | –
3 | CC(=O)Nc1ccc(Nc2nccc(-c3sc(C)nc3C)n2)cc1 [Compound 45, N-{4-[4-(2,4-Dimethyl-thiazol-5-yl)-pyrimidin-2-ylamino]-phenyl}-acetamide] | 0.37 | – | 17 | 2.5 | 0.66 | 0.84 | 2.6 | 2.2 | 0.24 | 2.8
4 | Cc1nc(NC(=O)CNCCOCCO)sc1-c1ccnc(Nc2ccc(N(C)C)cc2)n1 [Compound 29, N-{5-[2-(4-Dimethylamino-phenylamino)-pyrimidin-4-yl]-4-methyl-thiazol-2-yl}-2-[2-(2-hydroxy-ethoxy)-ethylamino]-acetamide] | 1.1 | 0.56 | 1.2 | 0.86 | 0.47 | 0.49 | 0.69 | 2.6 | – | 0.72
5 | Cc1nc(N)sc1-c1ccnc(Nc2cccc(S(C)(=O)=O)c2)n1 [Compound 84, [4-(2-Amino-4-methyl-thiazol-5-yl)-pyrimidin-2-yl]-(3-methanesulfonyl-phenyl)-amine] | 0.3 | 0.3 | 0.43 | 0.14 | 0.076 | 0.05 | – | – | – | –
6 | Cc1nc(C)c(-c2ccnc(Nc3ccc(N4CCN(CCO)CC4)cc3)n2)s1 [Compound 9, 2-(4-{4-[4-(2,4-Dimethyl-thiazol-5-yl)-pyrimidin-2-ylamino]-phenyl}-piperazin-1-yl)-ethanol] | 0.43 | – | 1.3 | 5.2 | 2.2 | 1.2 | 3 | 2 | 0.21 | 2
7 | COc1ccc(Nc2nccc(-c3sc(NC(=O)CCN4CCOCC4)nc3C)n2)cc1 [Compound 38, N-{5-[2-(4-Methoxy-phenylamino)-pyrimidin-4-yl]-4-methyl-thiazol-2-yl}-3-morpholin-4-yl-propionamide] | 1.8 | – | – | 1.9 | 2.7 | 0.58 | 2.7 | 1.7 | 1.1 | 5.3
8 | CNc1nc(C)c(-c2ccnc(Nc3cccc(CNS(C)(=O)=O)c3)n2)s1 [Compound 83, N-{3-[4-(4-Methyl-2-methylamino-thiazol-5-yl)-pyrimidin-2-ylamino]-benzyl}-methanesulfonamide] | 0.67 | 1 | 0.37 | 0.48 | 0.025 | 0.15 | – | – | – | –
9 | COc1cccc(Nc2nccc(-c3sc(NC(=O)CCN4CCOCC4)nc3C)n2)c1 [Compound 39, N-{5-[2-(3-Methoxy-phenylamino)-pyrimidin-4-yl]-4-methyl-thiazol-2-yl}-3-morpholin-4-yl-propionamide] | 32 | – | – | 11 | 1.2 | 2.7 | 0.8 | 0.72 | 15 | 0.95
10 | Cc1nc(NC(=O)CCl)sc1-c1ccnc(Nc2ccc(Cl)cc2)n1 [Compound 34, 2-Chloro-N-{5-[2-(4-chloro-phenylamino)-pyrimidin-4-yl]-4-methyl-thiazol-2-yl}-acetamide] | 7 | 0.73 | – | – | 1.4 | – | 3.9 | 3.2 | – | 3.3
11 | Cc1nc(N)sc1-c1ccnc(Nc2ccc(S(C)(=O)=O)cc2)n1 [Compound 76, [4-(2-Amino-4-methyl-thiazol-5-yl)-pyrimidin-2-yl]-(4-methanesulfonyl-phenyl)-amine] | 3.2 | 5.4 | 11 | 1.8 | 0.15 | 0.14 | 5.8 | 1.8 | – | 1.3
12 | CCN(CC)CCNCCC(=O)Nc1nc(C)c(-c2ccnc(Nc3ccc(Cl)cc3)n2)s1 [Compound 36, N-{5-[2-(4-Chloro-phenylamino)-pyrimidin-4-yl]-4-methyl-thiazol-2-yl}-3-(2-diethylamino-ethylamino)-propionamide] | 8.8 | – | 4 | 33 | 3.4 | 13 | 26 | 9.6 | 4.8 | 38
13 | CNc1nc(C)c(-c2ccnc(Nc3cccc(CNS(=O)(=O)C(F)(F)F)c3)n2)s1 [Compound 82, C,C,C-Trifluoro-N-{3-[4-(4-methyl-2-methylamino-thiazol-5-yl)-pyrimidin-2-ylamino]-benzyl}-methanesulfonamide] | 2.3 | 1.2 | 4 | 2.7 | 0.014 | 1.3 | – | – | – | –
14 | Cc1nc(NC(=O)CCN)sc1-c1ccnc(Nc2cccc([N+](=O)[O-])c2)n1 [Compound 13, 3-Amino-N-{4-methyl-5-[2-(3-nitro-phenylamino)-pyrimidin-4-yl]-thiazol-2-yl}-propionamide] | 0.67 | – | 0.37 | 5.6 | 0.28 | 0.57 | 3.1 | 2.8 | 0.042 | 1.9
15 | Cc1nc(NC(=O)CCN2CCOCC2)sc1-c1ccnc(Nc2ccc(Cl)cc2)n1 [Compound 35, N-{5-[2-(4-Chloro-phenylamino)-pyrimidin-4-yl]-4-methyl-thiazol-2-yl}-3-morpholin-4-yl-propionamide] | 4.7 | – | – | 15 | 0.8 | 3 | 15 | 7.7 | 1.8 | 26
16 | COc1ccc(Nc2nccc(-c3sc(NC(=O)CCN4CCN(C)CC4)nc3C)n2)cc1 [Compound 40, N-{5-[2-(4-Methoxy-phenylamino)-pyrimidin-4-yl]-4-methyl-thiazol-2-yl}-3-(4-methyl-piperazin-1-yl)-propionamide] | 7.4 | – | – | 61 | 64 | 14 | 4.4 | 0.73 | 8.9 | 4.3
